Experimental data: paper PMC10888103, “Enhanced High-Fructose Corn Syrup Production: Immobilizing Serratia marcescens Glucose Isomerase on MOF (Co)-525 Reduces Co^2+ Dependency in Glucose Isomerization to Fructose” (Foods, 2024)

Tested on: T1, Serratia marcescens glucose isomerase (SmGI)
T1 construct: gene xylA; native, from S. marcescens lysate; 70 °C heat step and 10 kD ultrafiltration only (no chromatography); main SDS-PAGE band about 60 kD
Assay: fructose formation by fructose assay kit, Lineweaver-Burk; heat-treated, ultrafiltered extract
Type: biochemical
Conditions: free enzyme, no added Co2+; 60 °C, 1 h; glucose 2.5-400 mM; pH of kinetic assay not stated
Excerpt: fructose formation by fructose assay kit, Lineweaver-Burk; heat-treated, ultrafiltered extract on Serratia marcescens glucose isomerase (SmGI)

## OC[C@H]1OC(O)[C@H](O)[C@@H](O)[C@@H]1O (stereo partly shown) [glucose]
  Km: 44.3 ± 3.1 mM
